# Assays:
# [1] = tested on: human adipocytes; assay: incorporation of [2-14C]-acetate into lipids (LIPOGENESIS) by isolated human adipocytes; type: cell-based; settings: for % control (incorporation of acetate) / % inhibition (incorporation of acetate) / Average of cpm (incorporation of acetate) / cpm - t0 test (incorporation of acetate) / inhibition at 10 µM / inhibition at 100 µM / inhibition at 1000 µM: 4 h; for inhibition at 10 µM / inhibition at 100 µM / inhibition at 1000 µM: Homo sapiens, Adipocyte
# Description: (§1) In these experiments, adipocytes were isolated from abdominal restorative surgeries sampled in women. The experiment took place the day of the sampling. Fragments of adipose tissues were incubated for 30 minutes at 37° C. in the presence of collagenase, then the isolated adipocytes were washed and taken up in medium MEM buffered with bicarbonate, in the presence of antibiotics (penicillin/streptomycin), glutamine (2 mM), and delipidated bovine serum albumin (0.5%).
# The tests concerning the effect on lipogenesis were then conducted in the following manner.
# Adipocytes (90 μl of ¼ diluted suspension) were incubated for 1 hour, either with a control medium (4 hours), with molecules known to inhibit the neosynthesis of fatty acids (EPA), as for example […], or with previously diluted extracts (added under 100 μl).
# As to the sterols and to the lipidic extracts of plants or algae, they were diluted in mineral oil which has been verified to not inhibit incorporation or extraction of adipocyte lipids. Then, 10 μl of [2^14C]-acetate, 50 μCi/ml, were added, and the samples were either cultivated at 37° C. in the presence of 5% CO2 for 4 additional hours, or immediately frozen at −80° C. (control t0).
# At the times indicated, the samples were frozen at −80° C. The lipids were then extracted according to the method of Bligh and Dyer (extraction methanol/chloroform/water), then dried under nitrogen. The radioactivity incorporated was then counted by liquid scintillation.
# [2] = tested on: human adipocytes; assay: liberation of NEFA (non-esterified fatty acids) (LIPOLYSIS) by isolated human adipocytes; type: cell-based; settings: for % Control (NEFA liberation) / Average of the NEFA: 2 hours at 37° C.
# Description: as §1
# As to the tests concerning the effect on lipolysis, they were conducted in the following manner. Adipocytes (540 μl of suspension) were incubated for 2 hours in a water bath at 37° C., with agitation, in the presence of 60 μl of different sterols. The experiments were carried out in triplicate.
# Then, the non-esterified fatty acids (AGNE) released by the adipocytes were determined in the sub-adipocyte media. The values obtained were treated by an analysis of variance (ANOVA) by means of the multiple comparison test of Dunnett. The values were considered as significant when the probability p was less than the threshold of significance 0.05.
# [3] = 0.01 mM (10^−5 M), absence of insulin
# [4] = 0.01 mM (10^−5 M), presence of insulin (1 nM)
# [5] = 0.1 mM (10^−4 M), absence of insulin
# [6] = 0.1 mM (10^−4 M), presence of insulin (1 nM)
# [7] = 1 mM (10^−3 M), absence of insulin
# [8] = 1 mM (10^−3 M), presence of insulin (1 nM)
# [9] = 10^−6 M, 10^−5 M, 10^−4 M, 10^−3 M and 10^−2 M
molecule,measurement,setting,value
"CC[C@H](CC[C@@H](C)[C@H]1CC[C@H]2[C@@H]3CC=C4C[C@@H](O)CC[C@]4(C)[C@H]3CC[C@]12C)C(C)C [Beta-sitosterol, beta-sitosterol]",incorporation of acetate by isolated human adipocytes (conclusion),[1],inhibit the incorporation of acetate
same,% control (incorporation of acetate),[1]; [3],96%
same,% inhibition (incorporation of acetate),[1]; [3],4%
same,Average of cpm (incorporation of acetate),[1]; [3],200044 cpm
same,cpm - t0 test (incorporation of acetate),[1]; [3],193579 cpm
same,% inhibition (incorporation of acetate),"[1]; 0.01 mM (10^−5 M), absence of insulin, listed as beta-sitosterol",weak and non-significant
same,% control (incorporation of acetate),[1]; [4],89%
same,Average of cpm (incorporation of acetate),[1]; [4],216417 cpm
same,cpm - t0 test (incorporation of acetate),[1]; [4],209952 cpm
same,% control (incorporation of acetate),[1]; [5],95%
same,% inhibition (incorporation of acetate),[1]; [5],5%
same,Average of cpm (incorporation of acetate),[1]; [5],198694 cpm
same,cpm - t0 test (incorporation of acetate),[1]; [5],192229 cpm
same,% inhibition (incorporation of acetate),"[1]; 0.1 mM (10^−4 M), absence of insulin, listed as beta-sitosterol",weak and non-significant
same,% control (incorporation of acetate),[1]; [6],93%
same,Average of cpm (incorporation of acetate),[1]; [6],224445 cpm
same,cpm - t0 test (incorporation of acetate),[1]; [6],217980 cpm
same,% control (incorporation of acetate),[1]; [7],84%
same,% inhibition (incorporation of acetate),[1]; [7],16%
same,Average of cpm (incorporation of acetate),[1]; [7],175711 cpm
same,cpm - t0 test (incorporation of acetate),[1]; [7],169246 cpm
same,% control (incorporation of acetate),[1]; [8],83%
same,% inhibition (incorporation of acetate),[1]; [8],17%
same,Average of cpm (incorporation of acetate),[1]; [8],201168 cpm
same,cpm - t0 test (incorporation of acetate),[1]; [8],194703 cpm
same,% Control (NEFA liberation),[2]; 10^−2 M,92%
same,Average of the NEFA,[2]; 10^−2 M,131 µM
same,% Control (NEFA liberation),[2]; 10^−3 M (1 mM),103%
same,Average of the NEFA,[2]; 10^−3 M (1 mM),145 µM
same,% Control (NEFA liberation),[2]; 10^−4 M,96%
same,Average of the NEFA,[2]; 10^−4 M,135 µM
same,% Control (NEFA liberation),[2]; 10^−5 M,107%
same,Average of the NEFA,[2]; 10^−5 M,151 µM
same,% Control (NEFA liberation),[2]; 10^−6 M (1 μM),110%
same,Average of the NEFA,[2]; 10^−6 M (1 μM),156 µM
same,stimulation of lipolysis,[2]; [9],did not stimulate lipolysis
"CC(C)[C@H](C)CC[C@@H](C)[C@H]1CC[C@H]2[C@@H]3CC=C4C[C@@H](O)CC[C@]4(C)[C@H]3CC[C@]12C [Campesterol, campesterol]",incorporation of acetate by isolated human adipocytes (conclusion),[1],inhibit the incorporation of acetate
same,% control (incorporation of acetate),[1]; [3],92%
same,Average of cpm (incorporation of acetate),[1]; [3],191817 cpm
same,cpm - t0 test (incorporation of acetate),[1]; [3],185352 cpm
same,% control (incorporation of acetate),[1]; [4],101%
same,% inhibition (incorporation of acetate),[1]; [4],no significant effect
same,Average of cpm (incorporation of acetate),[1]; [4],243051 cpm
same,cpm - t0 test (incorporation of acetate),[1]; [4],236586 cpm
same,% control (incorporation of acetate),[1]; [5],90%
same,Average of cpm (incorporation of acetate),[1]; [5],188278 cpm
same,cpm - t0 test (incorporation of acetate),[1]; [5],181813 cpm
same,% control (incorporation of acetate),[1]; [6],85%
same,Average of cpm (incorporation of acetate),[1]; [6],206655 cpm
same,cpm - t0 test (incorporation of acetate),[1]; [6],200190 cpm
same,% control (incorporation of acetate),[1]; [7],74%
same,Average of cpm (incorporation of acetate),[1]; [7],156448 cpm
same,cpm - t0 test (incorporation of acetate),[1]; [7],149983 cpm
same,% control (incorporation of acetate),[1]; [8],48%
same,Average of cpm (incorporation of acetate),[1]; [8],119960 cpm
same,cpm - t0 test (incorporation of acetate),[1]; [8],113495 cpm
same,inhibition at 10 µM,[1]; [3],8%
same,inhibition at 10 µM,[1]; [4],0%
same,inhibition at 100 µM,[1]; [5],10%
same,inhibition at 100 µM,[1]; [6],15%
same,inhibition at 1000 µM,[1]; [7],26%
same,inhibition at 1000 µM,[1]; [8],52%
same,% Control (NEFA liberation),[2]; 10^−2 M,118%
same,Average of the NEFA,[2]; 10^−2 M,167 µM
same,% Control (NEFA liberation),[2]; 10^−3 M (1 mM),98%
same,Average of the NEFA,[2]; 10^−3 M (1 mM),138 µM
same,% Control (NEFA liberation),[2]; 10^−4 M,109%
same,Average of the NEFA,[2]; 10^−4 M,155 µM
same,% Control (NEFA liberation),[2]; 10^−5 M,99%
same,Average of the NEFA,[2]; 10^−5 M,140 µM
same,% Control (NEFA liberation),[2]; 10^−6 M (1 μM),117%
same,Average of the NEFA,[2]; 10^−6 M (1 μM),166 µM
same,stimulation of lipolysis,[2]; [9],did not stimulate lipolysis
"CC/C=C\C/C=C\C/C=C\C/C=C\C/C=C\CCCC(=O)O [EPA, eicosapentanoic acid, reference compound]",% control (incorporation of acetate),[1]; [5],18%
same,% inhibition (incorporation of acetate),[1]; [5],82%
same,Average of cpm (incorporation of acetate),[1]; [5],43253 cpm
same,cpm - t0 test (incorporation of acetate),[1]; [5],36788 cpm
same,% control (incorporation of acetate),[1]; [6],38%
same,% inhibition (incorporation of acetate),[1]; [6],62%
same,Average of cpm (incorporation of acetate),[1]; [6],96244 cpm
same,cpm - t0 test (incorporation of acetate),[1]; [6],89779 cpm
same,% control (incorporation of acetate),[1]; [7],3%
same,% inhibition (incorporation of acetate),[1]; [7],97%
same,Average of cpm (incorporation of acetate),[1]; [7],1287 cpm
same,cpm - t0 test (incorporation of acetate),[1]; [7],6373 cpm
same,% control (incorporation of acetate),[1]; [8],3%
same,% inhibition (incorporation of acetate),[1]; [8],97%
same,Average of cpm (incorporation of acetate),[1]; [8],13384 cpm
same,cpm - t0 test (incorporation of acetate),[1]; [8],6919 cpm
"CC(C)NCC(O)c1ccc(O)c(O)c1 (stereo not shown) [Isoproterenol, isoproterenol, reference compound]",stimulation of lipolysis,"[2]; 1 μM, p<0.05",stimulated the lipolysis
same,% Control (NEFA liberation),[2]; 10^−6 M (1 μM),342%
same,Average of the NEFA,[2]; 10^−6 M (1 μM),483 µM
"CC[C@H](/C=C/[C@@H](C)[C@H]1CC[C@H]2[C@@H]3CC=C4C[C@@H](O)CC[C@]4(C)[C@H]3CC[C@]12C)C(C)C [Stigmasterol, stigmasterol]",% control (incorporation of acetate),[1]; [3],95%
same,% inhibition (incorporation of acetate),[1]; [3],weak and non-significant
same,Average of cpm (incorporation of acetate),[1]; [3],198442 cpm
same,cpm - t0 test (incorporation of acetate),[1]; [3],191977 cpm
same,% control (incorporation of acetate),[1]; [4],98%
same,% inhibition (incorporation of acetate),[1]; [4],2%
same,Average of cpm (incorporation of acetate),[1]; [4],235529 cpm
same,cpm - t0 test (incorporation of acetate),[1]; [4],229064 cpm
same,% inhibition (incorporation of acetate),"[1]; 0.01 mM (10^−5 M), presence of insulin (1 nM), listed as stigmasterol",less than 5%
same,% control (incorporation of acetate),[1]; [5],96%
same,% inhibition (incorporation of acetate),[1]; [5],weak and non-significant
same,Average of cpm (incorporation of acetate),[1]; [5],200467 cpm
same,cpm - t0 test (incorporation of acetate),[1]; [5],194002 cpm
same,% control (incorporation of acetate),[1]; [6],97%
same,% inhibition (incorporation of acetate),[1]; [6],3%
same,Average of cpm (incorporation of acetate),[1]; [6],234524 cpm
same,cpm - t0 test (incorporation of acetate),[1]; [6],228059 cpm
same,% control (incorporation of acetate),[1]; [7],101%
same,% inhibition (incorporation of acetate),[1]; [7],weak and non-significant
same,Average of cpm (incorporation of acetate),[1]; [7],210055 cpm
same,cpm - t0 test (incorporation of acetate),[1]; [7],203590 cpm
same,% control (incorporation of acetate),[1]; [8],94%
same,% inhibition (incorporation of acetate),[1]; [8],6%
same,Average of cpm (incorporation of acetate),[1]; [8],227385 cpm
same,cpm - t0 test (incorporation of acetate),[1]; [8],220920 cpm
same,inhibition at 10 µM,[1]; [3],5%
same,inhibition at 100 µM,[1]; [5],4%
same,inhibition at 100 µM,[1]; [6],< 5%
same,inhibition at 1000 µM,[1]; [7],0%
same,inhibition at 1000 µM,[1]; [8],< 5%
same,liberation of fatty acids by isolated human adipocytes (conclusion),[2],increases the liberation of fatty acids
same,% Control (NEFA liberation),[2]; 10^−2 M,112%
same,Average of the NEFA,[2]; 10^−2 M,158 µM
same,% Control (NEFA liberation),[2]; 10^−3 M (1 mM),126%
same,Average of the NEFA,[2]; 10^−3 M (1 mM),178 µM
same,% Control (NEFA liberation),[2]; 10^−4 M,133%
same,Average of the NEFA,[2]; 10^−4 M,189 µM
same,% Control (NEFA liberation),[2]; 10^−5 M,128%
same,Average of the NEFA,[2]; 10^−5 M,180 µM
same,% Control (NEFA liberation),[2]; 10^−6 M (1 μM),112%
same,Average of the NEFA,[2]; 10^−6 M (1 μM),158 µM
same,effect on liberation of NEFA,[2]; 10^−6 M and 10^−2 M,did not show significant effect
"Cn1c(=O)c2[nH]cnc2n(C)c1=O [Theophylline, theophylline, reference compound]",stimulation of lipolysis,"[2]; 1 nM, p<0.05",stimulated the lipolysis
same,% Control (NEFA liberation),[2]; 10^−3 M (1 mM),390%
same,Average of the NEFA,[2]; 10^−3 M (1 mM),551 µM
insulin,increase of the incorporation of acetate,[1]; 1 nM of insulin,16%
same,increase of the incorporation of acetate,"[1]; 100 nM of insulin, another donor",120%

# Source: patent publication US6596288B2, “Use of sterols as active ingredient in a cosmetic composition against adiposity” (Codif International SA, priority 2000, dated 2003)
